Measurements from publication PMC6952414 (Nature Communications, 2020).
Several values for one entry are separate records, joined by “and”; a condition that tells them apart may be missing. Equal entries are not always repeated.

Tested on: HA
Type: binding, IAV H1N1 strain A/Puerto Rico/8/1934 (PR8)

| Substance | HA x ratio |
| --- | --- |
| ARRVNHH | 0.61 |
| DRRVNHH | 0.65 |
| ERRVNHH | 0.60 |
| FRRVNHH | 0.71 |
| GRRVNHH | 0.37 |
| HRRVNHH | 0.38 |
| IRRVNHH | 0.41 |
| KRRVNHH | 0.87 |
| LRRVNHH | 0.80 |
| MRRVNHH | 0.73 |
| NRRVNHH | 0.43 |
| PRRVNHH | 0.56 |
| QRRVNHH | 0.78 |
| RARDNHH | 0.61 and 0.73 and 0.72 |
| RARVNHH | 1.61 |
| RDRVNHH | 0.80 |
| RERVNHH | 0.54 |
| RFPVNHH | 1.20 and 1.08 and 1.00 |
| RFRVNHH | 0.56 |
| RGPVNHH | 1.56 and 1.10 and 0.92 |
| RGRDNHH | 0.78 and 1.32 and 1.08 |
| RGRVNHH | 1.41 |
| RHPVNHH | 0.90 and 1.23 and 0.70 |
| RHRDNHH | 1.05 and 1.04 and 0.77 |
| RHRVNHH | 1.57 |

| Substance | HA x ratio |
| --- | --- |
| RIPVNHH | 1.46 and 1.18 and 0.86 |
| RIRVNHH | 1.38 |
| RKPVNHH | 1.27 and 1.55 and 1.97 |
| RKRDNHH | 1.05 and 0.70 |
| RKRVNHH | 1.35 |
| RLPVNHH | 0.45 and 0.68 and 0.79 |
| RLRVNHH | 1.05 |
| RMRDNHH | 0.77 and 0.40 and 0.59 |
| RMRVNHH | 0.90 |
| RNPVNHH | 1.21 and 1.04 and 0.76 |
| RNRVNHH | 1.11 |
| RPPVNHH | 0.98 and 0.96 and 0.50 |
| RPRVNHH | 0.60 |
| RQPVNHH | 0.63 and 0.91 and 1.08 |
| RQRDNHH | 1.02 and 1.69 and 1.17 |
| RQRVNGG | 0.75 |
| RRADNHH | 0.49 and 0.70 and 0.62 |
| RRAVNHH | 0.96 |
| RRDVNHH | 0.60 |
| RREVNHH | 3.11 |
| RRFDNHH | 0.56 and 0.46 and 0.45 |
| RRFVNHH | 2.86 |
| RRGVNHH | 2.40 |
| RRHDNHH | 1.24 and 1.02 and 1.09 |
| RRHVNHH | 1.09 |

| Substance | HA x ratio |
| --- | --- |
| RRIVNHH | 1.20 |
| RRKVNHH | 0.82 |
| RRLVNHH | 0.69 |
| RRMDNHH | 0.63 and 1.00 and 0.79 |
| RRMVNHH | 0.79 |
| RRNDNHH | 0.51 and 0.36 and 0.50 |
| RRNVNHH | 0.61 |
| RRPKNHH | 0.76 and 0.64 and 0.51 |
| RRPLNHH | 0.82 and 0.76 and 0.42 |
| RRPNNHH | 1.47 and 1.90 and 1.08 |
| RRPRNHH | 0.65 and 0.78 and 0.39 |
| RRPVNHE | 1.47 and 1.30 and 1.11 |
| RRPVNHF | 1.54 and 1.38 and 2.67 |
| RRPVNHK | 1.14 and 0.99 and 0.62 |
| RRPVNHQ | 1.37 and 1.26 and 0.94 |
| RRPVNHS | 1.08 and 1.99 and 1.46 |
| RRPVNHT | 0.76 and 1.24 and 0.77 |
| RRPVNHY | 1.43 and 0.76 and 0.77 |
| RRQVNHH | 2.55 |
| RRRANHH | 0.36 |
| RRRDNHA | 1.07 and 0.73 and 0.58 |
| RRRDNHD | 0.55 and 0.60 and 0.30 |
| RRRDNHL | 0.92 and 0.83 and 0.51 |
| RRRDNHP | 0.54 and 0.61 and 0.45 |
| RRRDNHQ | 0.36 and 0.45 and 0.67 |

| Substance | HA x ratio |
| --- | --- |
| RRRDNHV | 1.05 and 1.22 and 1.16 |
| RRRENHH | 0.59 |
| RRRFNHH | 0.78 |
| RRRGNHH | 0.46 |
| RRRHNHH | 0.30 |
| RRRINHH | 0.39 |
| RRRKNHH | 1.55 |
| RRRLNHH | 0.42 |
| RRRMNHH | 2.13 |
| RRRNNHH | 2.20 |
| RRRPNHH | 0.36 |
| RRRQNHH | 1.81 |
| RRRRNHH | 1.09 |
| RRRSNHH | 0.40 |
| RRRTNHH | 0.28 |
| RRRVAHH | 1.62 |
| RRRVDHH | 1.09 |
| RRRVEHH | 0.64 |
| RRRVFHH | 0.71 |
| RRRVGHH | 0.56 |
| RRRVHHH | 0.35 |
| RRRVIHH | 0.63 |
| RRRVKHH | 1.27 |
| RRRVLHH | 1.21 |
| RRRVMHH | 0.90 |

| Substance | HA x ratio |
| --- | --- |
| RRRVNAH | 0.91 |
| RRRVNDH | 0.72 |
| RRRVNEH | 0.49 |
| RRRVNFH | 0.93 |
| RRRVNGH | 0.70 |
| RRRVNHA | 0.56 |
| RRRVNHD | 0.46 |
| RRRVNHE | 1.77 |
| RRRVNHF | 0.66 |
| RRRVNHG | 1.43 |
| RRRVNHI | 0.72 |
| RRRVNHK | 0.59 |
| RRRVNHL | 0.48 |
| RRRVNHM | 0.42 |
| RRRVNHN | 0.66 |
| RRRVNHP | 1.63 |
| RRRVNHQ | 0.72 |
| RRRVNHR | 1.48 |
| RRRVNHS | 1.03 |
| RRRVNHT | 1.23 |
| RRRVNHV | 0.49 |
| RRRVNHW | 0.44 |
| RRRVNHY | 0.36 |
| RRRVNIH | 0.95 |
| RRRVNKH | 1.27 |

| Substance | HA x ratio |
| --- | --- |
| RRRVNLH | 1.09 |
| RRRVNMH | 1.22 |
| RRRVNNH | 1.00 |
| RRRVNPH | 0.89 |
| RRRVNQH | 0.65 |
| RRRVNRH | 0.73 |
| RRRVNSH | 0.86 |
| RRRVNTH | 0.88 |
| RRRVNVH | 0.80 |
| RRRVNWH | 0.80 |
| RRRVNYH | 1.55 |
| RRRVPHH | 0.90 |
| RRRVQHH | 0.71 |
| RRRVRHH | 1.24 |
| RRRVSHH | 0.61 |
| RRRVTHH | 0.46 |
| RRRVVHH | 1.27 |
| RRRVWHH | 0.57 |
| RRRVYHH | 1.10 |
| RRRWNHH | 0.30 |
| RRRYNHH | 0.39 |
| RRSFNHH | 0.82 and 0.91 and 0.46 |
| RRSKNHH | 1.10 and 0.79 and 1.25 |
| RRSMNHH | 0.75 and 0.55 |
| RRSNNHH | 0.73 and 0.74 and 0.37 |

| Substance | HA x ratio |
| --- | --- |
| RRSPNHH | 0.39 and 0.47 and 0.43 |
| RRSRNHH | 1.02 and 0.86 and 0.77 |
| RRTVNHH | 1.15 |
| RRVVNHH | 0.57 |
| RRWVNHH | 0.66 |
| RRYDNHH | 1.25 and 0.92 and 1.56 |
| RRYVNHH | 0.69 |
| RSPVNHH | 1.07 and 0.89 and 0.72 |
| RSRVNHH | 2.42 |
| RTRDNHH | 1.38 and 1.50 |
| RTRVNHH | 2.79 |
| RVPVNHH | 1.05 and 1.07 and 0.75 |
| RVRVNHH | 0.68 |
| RWRDNHH | 1.15 and 1.05 and 0.76 |
| RWRVNHH | 1.99 |
| RYRVNHH | 1.46 |
| SRRVNHH | 0.49 |
| TRRVNHH | 0.39 |
| VRRVNHH | 0.98 |
| WRRVNHH | 0.56 |
| YRRVNHH | 1.34 |
